Results taken from ChEMBL document CHEMBL1201862, “PubChem BioAssay data set” (2004).
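Where inhibition never reached the appropriate level, the endpoint shown equals the highest concentration tested. Otherwise, values were interpolated linearly from a five-concentration, 48-hour dose response in 96-well plates. GI50 = concentration required for 50% inhibition of growth.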 Calls of active or inactive are those of the source. No stated cut-off is given here; in the data, active = GI50 up to about 1.1 µM and inactive = higher.

What was measured:
Test in all cases: NCI anticancer screen, dose series, 48 h
DU-145 = test system: DU-145
COLO 205 = test system: COLO 205
HCT-15 = test system: HCT-15
HL-60 = test system: HL-60
Malme-3M = test system: Malme-3M
RXF 393 = test system: RXF 393
M14 = test system: M14
SW-620 = test system: SW-620
SNB-19 = test system: SNB-19
MDA-MB-435 = test system: MDA-MB-435
OVCAR-3 = test system: OVCAR-3
SK-MEL-28 = test system: SK-MEL-28
SF-539 = test system: SF-539
MOLT-4 = test system: MOLT-4
UACC-62 = test system: UACC-62
MDA-MB-231 = test system: MDA-MB-231
OVCAR-8 = test system: OVCAR-8
RPMI-8226 = test system: RPMI-8226
HOP-62 = test system: HOP-62
HT-29 = test system: HT-29

## COc1cc(OCc2ccc3nc(-c4ccccc4)c(N)nc3c2)cc(OC)c1OC
DU-145
  GI50: 22.2 µM (inactive)
COLO 205
  GI50: 16.5 µM (inactive)
HCT-15
  GI50: 17.3 µM
HL-60
  GI50: 12.4 µM (inactive)
Malme-3M
  GI50: 13.4 µM (inactive)
RXF 393
  GI50: 23.1 µM (inactive)
M14
  GI50: 15.8 µM (inactive)
SW-620
  GI50: 28.2 µM (inactive)
SNB-19
  GI50: 24.2 µM (inactive)
MDA-MB-435
  GI50: 19.1 µM (inactive)
OVCAR-3
  GI50: 16.4 µM (inactive)
SK-MEL-28
  GI50: 19.3 µM (inactive)
SF-539
  GI50: 20.7 µM (inactive)
MOLT-4
  GI50: 8.13 µM (inactive)
UACC-62
  GI50: 13.4 µM (inactive)
MDA-MB-231
  GI50: 25.5 µM (inactive)
OVCAR-8
  GI50: 27.8 µM (inactive)
RPMI-8226
  GI50: 8.79 µM (inactive)

## CCN1C(=O)CS/C1=N\NC(=O)CSc1nc2ccccc2c(=O)n1CC
DU-145
  GI50: > 100 µM (inactive)
COLO 205
  GI50: > 100 µM (inactive)
HCT-15
  GI50: > 100 µM
HL-60
  GI50: 96.4 µM (inactive)
Malme-3M
  GI50: > 100 µM (inactive)
RXF 393
  GI50: 65.9 µM (inactive)
M14
  GI50: > 100 µM (inactive)
SW-620
  GI50: > 100 µM (inactive)
SNB-19
  GI50: > 100 µM (inactive)
MDA-MB-435
  GI50: > 100 µM (inactive)
OVCAR-3
  GI50: > 100 µM (inactive)
SK-MEL-28
  GI50: > 100 µM (inactive)
HOP-62
  GI50: > 100 µM (inactive)
SF-539
  GI50: > 100 µM (inactive)
MOLT-4
  GI50: > 100 µM (inactive)
UACC-62
  GI50: > 100 µM (inactive)
MDA-MB-231
  GI50: > 100 µM (inactive)
OVCAR-8
  GI50: > 100 µM (inactive)
RPMI-8226
  GI50: > 100 µM (inactive)

## N#CCC(=O)N/N=C\C(O)C(O)C(O)C(O)CO (stereo not drawn)
DU-145
  GI50: > 100 µM (inactive)
HCT-15
  GI50: > 100 µM
HL-60
  GI50: > 100 µM (inactive)
Malme-3M
  GI50: > 100 µM (inactive)
RXF 393
  GI50: > 100 µM (inactive)
M14
  GI50: > 100 µM (inactive)
SW-620
  GI50: > 100 µM (inactive)
SNB-19
  GI50: > 100 µM (inactive)
MDA-MB-435
  GI50: > 100 µM (inactive)
OVCAR-3
  GI50: > 100 µM (inactive)
SK-MEL-28
  GI50: > 100 µM (inactive)
HOP-62
  GI50: > 100 µM (inactive)
SF-539
  GI50: > 100 µM (inactive)
MOLT-4
  GI50: > 100 µM (inactive)
HT-29
  GI50: > 100 µM (inactive)
UACC-62
  GI50: > 100 µM (inactive)
MDA-MB-231
  GI50: > 100 µM (inactive)
OVCAR-8
  GI50: > 100 µM (inactive)
RPMI-8226
  GI50: > 100 µM (inactive)

## CCCCCCCCCCC1OC([C@@H](O)CC[C@H](O)C2CC[C@@H](CCCCCCCC(O)CC3=CC(C)OC3=O)O2)CCC1O (stereo partly drawn)
DU-145
  GI50: 14.6 µM (inactive)
COLO 205
  GI50: 6.85 µM (inactive)
HCT-15
  GI50: 10.1 µM
HL-60
  GI50: 2.74 µM (inactive)
Malme-3M
  GI50: 14 µM (inactive)
RXF 393
  GI50: > 9.77 µM (inactive)
M14
  GI50: 8.04 µM (inactive)
SW-620
  GI50: > 17.9 µM (inactive)
SNB-19
  GI50: 9.46 µM (inactive)
MDA-MB-435
  GI50: 7.24 µM (inactive)
OVCAR-3
  GI50: 5.64 µM (inactive)
SK-MEL-28
  GI50: > 17.9 µM (inactive)
HOP-62
  GI50: 4.53 µM (inactive)
SF-539
  GI50: 14.4 µM (inactive)
HT-29
  GI50: 5.4 µM (inactive)
UACC-62
  GI50: 4.72 µM (inactive)
MDA-MB-231
  GI50: > 16.3 µM (inactive)
OVCAR-8
  GI50: 3.79 µM (inactive)
RPMI-8226
  GI50: 3.59 µM (inactive)

## O=C(c1ccco1)N(C(=O)N1CCCCC1)c1ccccc1
DU-145
  GI50: > 100 µM (inactive)
COLO 205
  GI50: > 100 µM (inactive)
HCT-15
  GI50: > 100 µM
HL-60
  GI50: > 100 µM (inactive)
Malme-3M
  GI50: 41.2 µM (inactive)
RXF 393
  GI50: 87.9 µM (inactive)
M14
  GI50: > 100 µM (inactive)
SW-620
  GI50: > 100 µM (inactive)
SNB-19
  GI50: > 100 µM (inactive)
MDA-MB-435
  GI50: > 100 µM (inactive)
OVCAR-3
  GI50: > 100 µM (inactive)
SK-MEL-28
  GI50: > 100 µM (inactive)
SF-539
  GI50: > 100 µM (inactive)
MOLT-4
  GI50: > 100 µM (inactive)
HT-29
  GI50: > 100 µM (inactive)
UACC-62
  GI50: > 100 µM (inactive)
MDA-MB-231
  GI50: > 100 µM (inactive)
OVCAR-8
  GI50: > 100 µM (inactive)
RPMI-8226
  GI50: > 100 µM (inactive)

## CC(C)(C)OC(=O)N1CCCC1=O
DU-145
  GI50: > 10 µM (inactive)
HCT-15
  GI50: > 10 µM
HL-60
  GI50: > 10 µM (inactive)
Malme-3M
  GI50: > 10 µM (inactive)
RXF 393
  GI50: > 10 µM (inactive)
M14
  GI50: > 10 µM (inactive)
SW-620
  GI50: > 10 µM (inactive)
SNB-19
  GI50: > 10 µM (inactive)
MDA-MB-435
  GI50: > 10 µM (inactive)
OVCAR-3
  GI50: > 10 µM (inactive)
SK-MEL-28
  GI50: > 10 µM (inactive)
HOP-62
  GI50: > 10 µM (inactive)
SF-539
  GI50: > 10 µM (inactive)
MOLT-4
  GI50: > 10 µM (inactive)
HT-29
  GI50: > 10 µM (inactive)
UACC-62
  GI50: > 10 µM (inactive)
MDA-MB-231
  GI50: > 10 µM (inactive)
OVCAR-8
  GI50: > 10 µM (inactive)
RPMI-8226
  GI50: > 10 µM (inactive)
